Target: T1, CYP17 (steroid 17-alpha-hydroxylase/17,20 lyase) (Homo sapiens, UniProt P05093)
T1 sequence (P05093 whole entry): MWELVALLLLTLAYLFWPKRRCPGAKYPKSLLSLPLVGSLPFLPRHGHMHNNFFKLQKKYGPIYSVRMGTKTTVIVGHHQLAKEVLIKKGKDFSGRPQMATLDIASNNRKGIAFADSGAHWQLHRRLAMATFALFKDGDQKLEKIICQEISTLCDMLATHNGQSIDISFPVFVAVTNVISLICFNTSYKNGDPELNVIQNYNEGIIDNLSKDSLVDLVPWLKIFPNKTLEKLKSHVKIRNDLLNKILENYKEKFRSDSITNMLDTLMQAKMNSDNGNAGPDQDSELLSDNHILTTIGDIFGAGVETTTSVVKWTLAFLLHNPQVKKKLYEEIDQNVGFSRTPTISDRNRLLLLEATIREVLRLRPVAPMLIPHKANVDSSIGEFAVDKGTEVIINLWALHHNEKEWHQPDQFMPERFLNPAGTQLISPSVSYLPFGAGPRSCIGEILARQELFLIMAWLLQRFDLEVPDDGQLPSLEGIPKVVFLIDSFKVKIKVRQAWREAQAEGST
Assay: in vitro
Description: Inhibition of human CYP17 expressed in Escherichia coli at 2.5 uM

Compound | inhibition at 2.5 µM [%]
N#Cc1ccc([C@@H](c2coc3ccccc3c2=O)n2ccnc2)cc1 | 6
O=c1c([C@@H](c2ccc(Br)cc2)n2ccnc2)coc2ccccc12 | 17
O=c1c([C@H](c2ccc([N+](=O)[O-])cc2)n2ccnc2)coc2ccccc12 | 12
O=c1c([C@H](c2ccc(Br)cc2)n2ccnc2)coc2ccccc12 | 13

Further lines, results first:

inhibition at 2.5 µM [%] | Compound
6 | N#Cc1ccc([C@H](c2coc3ccccc3c2=O)n2ccnc2)cc1
20 | O=c1c([C@@H](c2ccc([N+](=O)[O-])cc2)n2ccnc2)coc2ccccc12

Source: ChEMBL document CHEMBL1139479, “Enantioselective nonsteroidal aromatase inhibitors identified through a multidisciplinary medicinal chemistry approach” (J Med Chem, 2005)
